How the values were obtained:
Assay type in all cases: toxicity, cell-based
Fibroblast = experiment: Incucyte cell viability with human fibroblast; details: 10 µM, compound concentration 10 uM
U2OS = experiment: Incucyte cell viability with U2OS; details: human, 10 µM, compound concentration 10 uM
HEK-293T = experiment: Incucyte cell viability with HEK293T; details: human, 10 µM, compound concentration 10 uM
[1] = 0 h, replicate number 1, timepoint 0 hours
[2] = 6 h, replicate number 2, timepoint 6 hours
[3] = 12 h, replicate number 1, timepoint 12 hours
[4] = 18 h, replicate number 1, timepoint 18 hours
[5] = 24 h, replicate number 1, timepoint 24 hours
[6] = 6 h, replicate number 1, timepoint 6 hours
[7] = 18 h, replicate number 2, timepoint 18 hours
[8] = 24 h, replicate number 2, timepoint 24 hours
[9] = 0 h, replicate number 2, timepoint 0 hours
[10] = 12 h, replicate number 2, timepoint 12 hours
Also: filed as whole numbers so only -1 and 0 and 1 occur.

| Structure (SMILES) | Growth Rate (Fibroblast; [1]) | Growth Rate (Fibroblast; [2]) | Growth Rate (Fibroblast; [3]) | Growth Rate (Fibroblast; [4]) | Growth Rate (Fibroblast; [5]) | Growth Rate (U2OS; [1]) | Growth Rate (U2OS; [2]) | Growth Rate (U2OS; [3]) | Growth Rate (U2OS; [4]) | Growth Rate (U2OS; [5]) | Growth Rate (HEK-293T; [1]) | Growth Rate (HEK-293T; [6]) | Growth Rate (HEK-293T; [3]) | Growth Rate (HEK-293T; [4]) | Growth Rate (HEK-293T; [5]) | Growth Rate (Fibroblast; [6]) | Growth Rate (Fibroblast; [7]) | Growth Rate (U2OS; [10]) | Growth Rate (Fibroblast; [10]) | Growth Rate (HEK-293T; [9]) | other results |
| --- | --- | --- | --- | --- | --- | --- | --- | --- | --- | --- | --- | --- | --- | --- | --- | --- | --- | --- | --- | --- | --- |
| CC(C)(O)c1ccccc1CC[C@@H](SCC1(CC(=O)[O-])CC1)c1cccc(/C=C/c2ccc3ccc(Cl)cc3n2)c1.[Na+] [MONTELUKAST SODIUM] | 0 | 0 | 1 | 1 | 1 | 0 | 0 | 1 | 1 | 1 | 0 | 1 | 0 | 1 | 1 | – | – | – | – | – | Growth Rate (HEK-293T; [2]): 0; Growth Rate (HEK-293T; [7]): 0; Growth Rate (HEK-293T; [8]): 0 |
| Cc1cc([C@@H](C)Nc2ccccc2C(=O)O)c2nc(N3CCOCC3)cc(=O)n2c1 [AZD-6482] | – | – | 0 | 0 | 1 | 0 | 1 | 0 | 0 | 0 | – | 0 | 0 | 0 | 0 | 0 | 1 | 1 | – | – | Growth Rate (Fibroblast; [9]): 0; Growth Rate (U2OS; [6]): 0; Growth Rate (U2OS; [7]): 1; Growth Rate (HEK-293T; [10]): 1; Growth Rate (HEK-293T; [8]): 1 |
| CO[C@@H](C)c1c(Nc2ccc([C@H](N(C)C(=O)C3CCS(=O)(=O)CC3)C(F)(F)F)cc2)cnc2cc(Cl)nn12 [NVS-MALT1] | – | 1 | 0 | 0 | 0 | 0 | 1 | 1 | 1 | 1 | 0 | – | 0 | 0 | 0 | 0 | 1 | 0 | 1 | 1 | Growth Rate (Fibroblast; [9]): 0; Growth Rate (Fibroblast; [8]): 1; Growth Rate (U2OS; [6]): 0; Growth Rate (HEK-293T; [2]): 0 |
| CC(C)N(CCCNC(=O)Nc1ccc(C(C)(C)C)cc1)C[C@H]1O[C@@H](n2cc(Br)c3c(N)ncnc32)[C@H](O)[C@@H]1O | – | – | 1 | 1 | 1 | 0 | – | 1 | 1 | 1 | – | 0 | – | – | 1 | – | – | – | – | – | Growth Rate (Fibroblast; [9]): 0; Growth Rate (U2OS; [6]): 1; Growth Rate (HEK-293T; [10]): 0; Growth Rate (HEK-293T; [7]): 1 |
| C[C@H](N)COC(=O)[C@@H](CCCCN)NC(=O)Cc1c(-c2ccc3ccccc3c2)[nH]c2c1ccc1ccccc12 | 0 | – | 1 | 0 | 0 | – | 0 | 1 | 1 | 1 | 0 | 1 | 1 | 1 | 1 | 0 | – | – | 0 | – | Growth Rate (U2OS; [9]): 0; Growth Rate (HEK-293T; [2]): 0; Growth Rate (HEK-293T; [10]): 0; Growth Rate (HEK-293T; [7]): 0; Growth Rate (HEK-293T; [8]): 0 |
| Cc1cc(C(C)(C)C)c(O)c(C)c1CC1=NCCN1.Cl [OXYMETAZOLINE HYDROCHLORIDE] | 0 | 1 | 1 | 1 | 1 | – | 1 | 0 | 0 | 0 | 0 | 1 | 1 | 1 | 1 | – | – | 1 | – | – | Growth Rate (Fibroblast; [8]): 0; Growth Rate (U2OS; [6]): 0; Growth Rate (U2OS; [8]): 1; Growth Rate (HEK-293T; [2]): 0; Growth Rate (HEK-293T; [10]): 0; Growth Rate (HEK-293T; [7]): 0; Growth Rate (HEK-293T; [8]): 0 |
| COc1cc(-c2cn([C@H]3CCc4ccccc4N(CC(F)(F)F)C3=O)nn2)ccc1-n1ccc(C)n1 | – | – | 0 | 1 | 0 | 0 | – | 0 | 0 | 0 | – | 0 | 0 | 0 | 0 | 0 | 0 | 1 | 1 | 1 | Growth Rate (Fibroblast; [9]): 0; Growth Rate (U2OS; [6]): 0 |
| CSc1cccnc1N1CCN(Cc2nc3ccccc3[nH]2)CC1 [A-769] | 0 | 1 | 0 | 0 | 0 | – | – | 0 | 0 | 1 | 1 | 0 | 0 | 0 | 0 | 0 | – | – | 1 | 0 | Growth Rate (Fibroblast; [9]): 1; Growth Rate (U2OS; [6]): 0; Growth Rate (U2OS; [7]): 1 |
| CCNC(=O)c1cc2c(N3CCOC[C@@H]3C)ccnc2n1C | 0 | 0 | 1 | 1 | 1 | 0 | 0 | 0 | 0 | 0 | 1 | 0 | 0 | 1 | 0 | 1 | 0 | 1 | 0 | 0 | Growth Rate (U2OS; [9]): 1; Growth Rate (U2OS; [7]): 1; Growth Rate (U2OS; [8]): 1; Growth Rate (HEK-293T; [8]): 1 |
| O=C([O-])c1cc2ccccc2c(Cc2c(O)c(C(=O)[O-])cc3ccccc23)c1O.[Na+].[Na+] | 0 | – | 1 | 1 | 1 | 0 | 1 | 0 | 0 | 0 | 0 | 1 | 1 | 1 | 1 | 1 | – | 1 | – | – | Growth Rate (U2OS; [8]): 1 |
| COc1cc2c(cc1NS(=O)(=O)c1ccc(Br)cc1C)n(C)c(=O)n2C | 0 | 0 | 1 | 1 | 1 | 0 | – | 1 | 1 | 1 | 1 | 0 | 0 | 0 | 0 | – | – | – | 0 | 0 | Growth Rate (Fibroblast; [8]): 0; Growth Rate (U2OS; [6]): 1 |
| CC1CCN(CC[C@H]2CCCN2S(=O)(=O)c2cccc(O)c2)CC1.Cl | 0 | – | – | 1 | 1 | 0 | 1 | 1 | 1 | 1 | 0 | 1 | 1 | 1 | 1 | 1 | – | – | 1 | – | Growth Rate (HEK-293T; [10]): 0 |
| C[C@H](NC[C@H](O)CP(=O)(O)CC1CCCCC1)c1ccc(Cl)c(Cl)c1.Cl | 0 | – | 1 | 0 | 0 | 0 | 0 | 1 | 1 | 1 | 1 | 0 | 1 | 1 | 1 | 0 | – | 0 | – | 0 | Growth Rate (Fibroblast; [8]): 1; Growth Rate (U2OS; [8]): 0; Growth Rate (HEK-293T; [2]): 1; Growth Rate (HEK-293T; [7]): 0 |
| Cl.Cl.Cl.c1ccc(N2CCN(Cc3nc4ccccc4[nH]3)CC2)nc1 | 0 | – | – | – | 1 | 0 | 0 | 1 | 1 | 1 | 1 | 1 | 1 | 1 | 0 | – | 1 | – | 1 | 0 | Growth Rate (HEK-293T; [10]): 0 |
| O=S1(=O)c2cccc3cccc(c23)N1CCCN1CCN(c2ccc(F)cc2)CC1 [FANANSERIN] | 0 | 0 | 0 | 1 | 1 | – | – | 1 | 1 | 1 | – | 0 | 0 | 0 | 0 | 1 | 0 | – | – | 0 | Growth Rate (Fibroblast; [8]): 0; Growth Rate (U2OS; [9]): 0 |
| Cl.Clc1cccc(COc2cncc(N3CCNCC3)n2)c1 | 1 | 0 | – | – | 1 | – | 0 | 0 | 1 | 1 | – | 0 | 0 | 0 | 0 | 1 | 0 | 1 | 0 | 1 | Growth Rate (Fibroblast; [8]): 0 |
| COC(=O)/C=C/c1cccc(N(Cc2ccc(-c3ccc(N(C)C)cc3)cc2)C(=O)C2CCCCC2)c1 [FEXARAMINE] | 0 | – | 1 | 1 | 1 | – | 0 | 1 | 1 | 0 | 0 | 1 | 0 | 0 | 0 | 0 | 0 | 0 | 0 | – | Growth Rate (Fibroblast; [8]): 0; Growth Rate (U2OS; [9]): 0; Growth Rate (U2OS; [7]): 0; Growth Rate (HEK-293T; [2]): 0 |
